Results from US20200261391A1, “METHODS OF REDUCING THE RISK OF A CARDIOVASCULAR EVENT IN A STATIN-TREATED SUBJECT BY INCREASING SERUM AND PLASMA EPA AND DPA LEVELS” (Amarin Pharmaceuticals Ireland Limited, priority 2019, published 2020).

Test system: patients with elevated triglyceride levels on statin therapy
Test: REDUCE-IT trial: safety (treatment-emergent adverse events, bleeding, atrial fibrillation/flutter)
[1] = TEAE by preferred term, Safety population, N = 4089
[2] = gastrointestinal TEAEs, Safety population, N = 4089
[3] = serious bleeding TEAE by preferred term, N = 4089
[4] = serious bleeding TEAE, Safety population, N = 4089

Procedure: Specification of Variables and Procedures: Safety assessments included adverse events, clinical laboratory measurements (chemistry, hematology), 12-lead ECGs, vital signs (systolic and diastolic blood pressure, heart rate, respiratory rate, and body temperature), weight, waist circumference, and physical examinations as per Study Procedures in Table 1. […] All laboratory test results were evaluated by the investigator as to their clinical significance. Any observations at physical examinations or laboratory values considered by the investigator to be clinically significant were considered an adverse event.
An adverse event can therefore be any unfavorable and/or unintended sign (including an abnormal laboratory finding), symptom, or disease temporally associated with the use of an investigational medication product, whether or not related to the investigational medication product. All adverse events, including observed or volunteered problems, complaints, or symptoms, were recorded on the appropriate CRF. Each adverse event was evaluated for duration, intensity, and causal relationship with the study medication or other factors.
Serious Adverse Events: A serious adverse event (SAE) is defined as an adverse event that meets any of the following criteria: • Results in death; • Is life-threatening—The term “life-threatening” in the definition of “serious” refers to an event in which the patient was at risk of death at the time of the event. […] Important medical events that may not result in death, be life threatening, or require hospitalization were considered an SAE when, based upon appropriate medical judgment, they may have jeopardized the patient and may have required medical or surgical intervention to prevent one of the outcomes listed above.
Adverse Events of Special Interest: Bleeding-related adverse events, glucose control (fasting blood glucose and HbA1c), and indicators of hepatic disorders (e.g., ALT or AST increases >3×ULN, total bilirubin increases of ≥2×ULN) were summarized separately and compared between treatment groups.
Analysis of Safety: All analyses of safety were conducted on the safety population, which was defined as all randomized patients. The safety assessment was based on the frequency of adverse events, physical exams, vital signs and safety laboratory tests. AEs with new onset during the study between the initiation of study drug and 30 days after the last dose of study drug for each patient was considered treatment-emergent (TEAEs). This included any AE with onset prior to initiation of study drug and increased severity after the treatment initiation.
This included overall incidence rates (regardless of severity and relationship to study drug), and incidence rates for moderate or severe adverse events. A summary of SAEs and adverse events leading to early discontinuation (for ≥30 days) were presented through data listings. Patients who restarted study drug were included in the summary of AEs leading to discontinuation. Safety laboratory tests and vital signs were summarized by post-treatment change from baseline for each of the parameters using descriptive statistics by treatment group. Those patients with significant laboratory abnormalities were identified in data listings. Additional safety parameters were summarized in data listings.

## CC/C=C\C/C=C\C/C=C\C/C=C\C/C=C\CCCC(=O)OCC [icosapent ethyl, eicosapentaenoic acid ethyl ester]
N = 4089
  Pneumonia, number of patients with serious treatment-emergent adverse event: 105
  Pneumonia, patients with serious treatment-emergent adverse event: 2.6%
Safety population, N = 4089
  Serious TEAE Leading to Death, % of patients: (2.3%)
  Serious TEAE Leading to Death, number of patients: 94
  Serious TEAE Leading to Withdrawal of Study Drug, % of patients: (2.2%)
  Serious TEAE Leading to Withdrawal of Study Drug, number of patients: 88
  Serious TEAE, % of patients: (30.6%)
  Serious TEAE, number of patients: 1252
  Subjects with at Least One TEAE, % of patients: (81.8%)
  Subjects with at Least One TEAE, number of patients: 3343
  TEAE Leading to Withdrawal of Study Drug, % of patients: (7.9%)
  TEAE Leading to Withdrawal of Study Drug, number of patients: 321
[1]
  Anemia, % of patients: 4.7%
  Anemia, number of patients: 191
  Angina pectoris, % of patients: 4.9%
  Angina pectoris, number of patients: 200
  Arthralgia, % of patients: 7.7%
  Arthralgia, number of patients: 313
  Atrial fibrillation, % of patients: 5.3%
  Atrial fibrillation, number of patients: 215
  Back pain, % of patients: 8.2%
  Back pain, number of patients: 335
  Bronchitis, % of patients: 7.5%
  Bronchitis, number of patients: 306
  Cataract, % of patients: 5.7%
  Cataract, number of patients: 233
  Chest pain, % of patients: 6.7%
  Chest pain, number of patients: 273
  Constipation, % of patients: 5.4%
  Constipation, number of patients: 221
  Cough, % of patients: 5.9%
  Cough, number of patients: 241
  Diarrhea, % of patients: 9.0%
  Diarrhea, number of patients: 367
  Dizziness, % of patients: 5.7%
  Dizziness, number of patients: 235
  Dyspnea, % of patients: 6.2%
  Dyspnea, number of patients: 254
  Fatigue, % of patients: 5.6%
  Fatigue, number of patients: 228
  Hypertension, % of patients: 7.8%
  Hypertension, number of patients: 320
  Influenza, % of patients: 6.4%
  Influenza, number of patients: 263
  Nasopharyngitis, % of patients: 7.7%
  Nasopharyngitis, number of patients: 314
  Osteoarthritis, % of patients: 5.9%
  Osteoarthritis, number of patients: 241
  Pain in extremity, % of patients: 5.7%
  Pain in extremity, number of patients: 235
  Peripheral edema, % of patients: 6.5%
  Peripheral edema, number of patients: 267
  Pneumonia, % of patients: 6.4%
  Pneumonia, number of patients: 263
  Upper respiratory tract infection, % of patients: 7.6%
  Upper respiratory tract infection, number of patients: 312
  Urinary tract infection, % of patients: 6.2%
  Urinary tract infection, number of patients: 253
[2]
  Gastroesophageal Reflux Disease, % of patients: 3.0%
  Gastroesophageal Reflux Disease, number of patients: 124
  Gastrointestinal disorders (primary system organ class), % of patients: 33.0%
  Gastrointestinal disorders (primary system organ class), number of patients: 1350
  Nausea, % of patients: 4.6%
  Nausea, number of patients: 190
In vivo
  anemia, adverse event rate: 4.7%
  atrial fibrillation or flutter requiring hospitalization (adjudicated tertiary endpoint), rate: 3.1%
  atrial fibrillation, adverse event rate: 5.3%
  diarrhea, adverse event rate: 9%
  gastrointestinal adverse events, rate: 33.0%
  gastrointestinal bleeding (serious), rate: 1.5%
  new or unexpected important adverse effects in the safety population: no new or unexpected important adverse effects
  overall adverse event rates compared with placebo: similar
  peripheral edema, adverse event rate: 6.5%
  serious central nervous system bleeding, rate: 0.3%
  tolerability: well tolerated
  treatment-emergent serious adverse events for bleeding, rate: 2.7%
In vivo, listed as AMR101
  rates of adverse events or serious adverse events leading to withdrawal of study drug vs placebo: no significant differences
[3]
  Aortic Aneurysm Rupture, % of patients: (0.0%)
  Aortic Aneurysm Rupture, number of patients: 1
  Brain Contusion, % of patients: (0.0%)
  Brain Contusion, number of patients: 0
  Catheter Site Hemorrhage, % of patients: (0.0%)
  Catheter Site Hemorrhage, number of patients: 0
  Cerebral Hemorrhage, % of patients: (0.0%)
  Cerebral Hemorrhage, number of patients: 0
  Cystitis Hemorrhagic, % of patients: (0.0%)
  Cystitis Hemorrhagic, number of patients: 2
  Diverticulitis Intestinal Hemorrhagic, % of patients: (0.0%)
  Diverticulitis Intestinal Hemorrhagic, number of patients: 0
  Diverticulum Intestinal Hemorrhagic, % of patients: (0.1%)
  Diverticulum Intestinal Hemorrhagic, number of patients: 3
  Duodenal Ulcer Hemorrhage, % of patients: (0.0%)
  Duodenal Ulcer Hemorrhage, number of patients: 2
  Ecchymosis, % of patients: (0.0%)
  Ecchymosis, number of patients: 1
  Epistaxis, % of patients: (0.2%)
  Epistaxis, number of patients: 7
  Esophageal Hemorrhage, % of patients: (0.0%)
  Esophageal Hemorrhage, number of patients: 0
  Extravasation Blood, % of patients: (0.0%)
  Extravasation Blood, number of patients: 1
  Gastric Hemorrhage, % of patients: (0.0%)
  Gastric Hemorrhage, number of patients: 1
  Gastric Ulcer Hemorrhage, % of patients: (0.1%)
  Gastric Ulcer Hemorrhage, number of patients: 3
  Gastrointestinal Angiodysplasia Hemorrhagic, % of patients: (0.0%)
  Gastrointestinal Angiodysplasia Hemorrhagic, number of patients: 1
  Gastrointestinal Hemorrhage, % of patients: (0.6%)
  Gastrointestinal Hemorrhage, number of patients: 26
  Genital Hemorrhage, % of patients: (0.0%)
  Genital Hemorrhage, number of patients: 1
  Hemarthrosis, % of patients: (0.0%)
  Hemarthrosis, number of patients: 0
  Hematemesis, % of patients: (0.1%)
  Hematemesis, number of patients: 3
  Hematochezia, % of patients: (0.0%)
  Hematochezia, number of patients: 1
  Hematoma, % of patients: (0.0%)
  Hematoma, number of patients: 1
  Hematuria, % of patients: (0.2%)
  Hematuria, number of patients: 8
  Hemoptysis, % of patients: (0.0%)
  Hemoptysis, number of patients: 1
  Hemorrhagic Anemia, % of patients: (0.1%)
  Hemorrhagic Anemia, number of patients: 4
  Hemorrhagic Duodenitis, % of patients: (0.0%)
  Hemorrhagic Duodenitis, number of patients: 0
  Hemorrhagic Transformation Stroke, % of patients: (0.0%)
  Hemorrhagic Transformation Stroke, number of patients: 1
  Hemorrhoidal Hemorrhage, % of patients: (0.1%)
  Hemorrhoidal Hemorrhage, number of patients: 3
  Hemothorax, % of patients: (0.0%)
  Hemothorax, number of patients: 1
  Immune Thrombocytopenic Purpura, % of patients: (0.0%)
  Immune Thrombocytopenic Purpura, number of patients: 0
  Intra-Abdominal Hemorrhage, % of patients: (0.0%)
  Intra-Abdominal Hemorrhage, number of patients: 1
  Intracranial Hemorrhage, % of patients: (0.0%)
  Intracranial Hemorrhage, number of patients: 0
  Large Intestinal Hemorrhage, % of patients: (0.0%)
  Large Intestinal Hemorrhage, number of patients: 1
  Lower Gastrointestinal Hemorrhage, % of patients: (0.1%)
  Lower Gastrointestinal Hemorrhage, number of patients: 5
  Mallory-Weiss Syndrome, % of patients: (0.0%)
  Mallory-Weiss Syndrome, number of patients: 1
  Melaena, % of patients: (0.1%)
  Melaena, number of patients: 3
  Menorrhagia, % of patients: (0.0%)
  Menorrhagia, number of patients: 1
  Mouth Hemorrhage, % of patients: (0.0%)
  Mouth Hemorrhage, number of patients: 0
  Pancreatitis Hemorrhagic, % of patients: (0.0%)
  Pancreatitis Hemorrhagic, number of patients: 1
  Peptic Ulcer Hemorrhage, % of patients: (0.0%)
  Peptic Ulcer Hemorrhage, number of patients: 1
  Pericardial Hemorrhage, % of patients: (0.0%)
  Pericardial Hemorrhage, number of patients: 0
  Post Procedural Hematoma, % of patients: (0.0%)
  Post Procedural Hematoma, number of patients: 1
  Post Procedural Hematuria, % of patients: (0.0%)
  Post Procedural Hematuria, number of patients: 0
  Post Procedural Hemorrhage, % of patients: (0.1%)
  Post Procedural Hemorrhage, number of patients: 5
  Rectal Hemorrhage, % of patients: (0.2%)
  Rectal Hemorrhage, number of patients: 10
  Renal Hemorrhage, % of patients: (0.0%)
  Renal Hemorrhage, number of patients: 0
  Retinal Hemorrhage, % of patients: (0.0%)
  Retinal Hemorrhage, number of patients: 1
  Retroperitoneal Hematoma, % of patients: (0.0%)
  Retroperitoneal Hematoma, number of patients: 0
  Retroperitoneal Hemorrhage, % of patients: (0.0%)
  Retroperitoneal Hemorrhage, number of patients: 1
  Shock Hemorrhagic, % of patients: (0.0%)
  Shock Hemorrhagic, number of patients: 2
  Subarachnoid Hemorrhage, % of patients: (0.0%)
  Subarachnoid Hemorrhage, number of patients: 2
  Subdural Hematoma, % of patients: (0.2%)
  Subdural Hematoma, number of patients: 9
  Subdural Hemorrhage, % of patients: (0.0%)
  Subdural Hemorrhage, number of patients: 2
  Traumatic Hematoma, % of patients: (0.0%)
  Traumatic Hematoma, number of patients: 2
  Traumatic Intracranial Hemorrhage, % of patients: (0.0%)
  Traumatic Intracranial Hemorrhage, number of patients: 0
  Ulcer Hemorrhage, % of patients: (0.0%)
  Ulcer Hemorrhage, number of patients: 1
  Upper Gastrointestinal Hemorrhage, % of patients: (0.1%)
  Upper Gastrointestinal Hemorrhage, number of patients: 3
  Urinary Bladder Hemorrhage, % of patients: (0.0%)
  Urinary Bladder Hemorrhage, number of patients: 1
[4]
  Bleeding related disorders, % of patients: (2.7%)
  Bleeding related disorders, number of patients: 111
  Central nervous system bleeding, % of patients: (0.3%)
  Central nervous system bleeding, number of patients: 14
  Gastrointestinal bleeding, % of patients: (1.5%)
  Gastrointestinal bleeding, number of patients: 62
  Other bleeding, % of patients: (1.0%)
  Other bleeding, number of patients: 41
